Test results as given in US20220193072A1, “METHODS OF TREATING BREAST CANCER WITH TETRAHYDRONAPHTHALENE DERIVATIVES AS ESTROGEN RECEPTOR DEGRADER” (Arvinas Operations, Inc., priority 2020, published 2022).
pEC50: −log10 of the molar value. “And” between values parts separate entries of the source, which are not always exact repeats. Identical values can stand only once.

Columns and labels:
[1] = target: T1, rat uterine ER (Rattus norvegicus, UniProt P06211); assay: Immature rat uterotrophic model; format: in vivo
T1 construct: from tissue; host or cells: uterus of immature rats
T1 sequence (P06211 1-600): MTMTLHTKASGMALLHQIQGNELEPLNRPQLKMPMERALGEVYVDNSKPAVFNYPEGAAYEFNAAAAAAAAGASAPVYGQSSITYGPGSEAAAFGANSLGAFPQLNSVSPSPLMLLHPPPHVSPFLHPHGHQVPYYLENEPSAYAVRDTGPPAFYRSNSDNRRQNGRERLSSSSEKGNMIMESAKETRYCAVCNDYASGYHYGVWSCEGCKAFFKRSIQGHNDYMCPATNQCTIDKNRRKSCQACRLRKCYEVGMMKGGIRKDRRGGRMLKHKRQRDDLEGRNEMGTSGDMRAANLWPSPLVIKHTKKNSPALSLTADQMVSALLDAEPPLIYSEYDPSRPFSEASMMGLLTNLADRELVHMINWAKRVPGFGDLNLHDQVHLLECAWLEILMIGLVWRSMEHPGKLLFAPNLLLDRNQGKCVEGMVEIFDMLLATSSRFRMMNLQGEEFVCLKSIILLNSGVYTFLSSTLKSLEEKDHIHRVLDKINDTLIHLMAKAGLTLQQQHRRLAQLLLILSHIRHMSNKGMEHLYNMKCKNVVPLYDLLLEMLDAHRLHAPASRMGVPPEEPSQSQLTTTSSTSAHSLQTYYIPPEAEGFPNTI

[2] = system: MCF7 xenograft; assay: Tumor growth inhibition in orthotopic MCF7/estradiol xenograft model, single agent; format: in vivo, NOD/SCID mice; details: for tumor growth inhibition (TGI): 28 days, vs vehicle
Protocol: Species: NOD/SCID female mice (Charles River, 6-7 weeks old upon arrival).
Animal handling: Axial mammary fat pad implantation of 5×10^6 MCF7 cells/200 per mouse (17β-estradiol 0.36 mg 90-day pellet implanted day before).
Tumor volumes were evaluated twice per week for twenty-eight days.
Sampling: Tumors were measured twice weekly. Terminal sacrifice was ˜18 hr after last dose; tumors were harvested, divided, and flash frozen. ERα levels were determined by immunoblotting.
Tumor volume calculation: Tumor Volume=(width×width×length)/2, where all measurements are in mm and the tumor volume is in mm^3.
Tumor Growth Inhibition (TGI) calculation: TGI (%)

[3] = system: MCF7 xenograft; assay: MCF7 orthotopic xenograft, combination with CDK4/6 inhibitor; format: in vivo, NOD/SCID mice
[4] = target: T2, ERα (ESR1 Y537S) (Homo sapiens, UniProt P03372, Y537S); assay: Tumor ERα levels in ESR1 (Y537S) PDX model; format: in vivo; details: for reduction of tumor ERα levels: ESR1 (Y537S) PDX, 28 days
T2 construct: a hormone-independent patient-derived xenograft model; from tissue; host or cells: ESR1 (Y537S) patient-derived xenograft tumour grown in mice
T2 sequence (P03372 1-595 Y537S): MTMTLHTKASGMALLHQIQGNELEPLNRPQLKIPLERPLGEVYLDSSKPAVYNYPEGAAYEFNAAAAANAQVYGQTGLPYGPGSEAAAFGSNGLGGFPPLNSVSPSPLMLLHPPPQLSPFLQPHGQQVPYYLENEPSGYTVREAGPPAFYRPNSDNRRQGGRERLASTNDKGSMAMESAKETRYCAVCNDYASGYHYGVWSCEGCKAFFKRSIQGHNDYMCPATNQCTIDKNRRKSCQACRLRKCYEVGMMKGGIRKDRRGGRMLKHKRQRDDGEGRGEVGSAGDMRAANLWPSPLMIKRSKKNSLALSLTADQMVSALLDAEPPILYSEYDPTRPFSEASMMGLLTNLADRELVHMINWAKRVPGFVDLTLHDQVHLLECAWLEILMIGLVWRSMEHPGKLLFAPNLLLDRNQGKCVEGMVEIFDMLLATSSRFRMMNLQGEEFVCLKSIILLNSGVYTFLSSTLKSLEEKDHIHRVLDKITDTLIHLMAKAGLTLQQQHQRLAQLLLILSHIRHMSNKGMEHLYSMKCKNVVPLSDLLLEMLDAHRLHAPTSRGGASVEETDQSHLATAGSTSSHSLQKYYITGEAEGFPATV

[5] = system: T47D cells; assay: Live-cell imaging growth studies and EC50 for growth inhibition, T47D; format: cell-based; details: Homo sapiens, read-out: Approximate Half-maximal Effective Concentration (EC50) for growth inhibition
Protocol: (§1) MCF7, T47D, T47D ESR1 Y537S or T47D ESR1 D538G cells were seeded at 2×10^5 density per well in 6-well tissue culture-treated plates in DMEM/F12/10% FBS (2 mL total volume). […] The plate was then placed in the Incucyte® S3 Live-Cell Analysis System and images were acquired every 4 hours for a total of 5 days (120 hours). Data were analyzed using the Incucyte® Software v2020C which quantified cell surface area coverage as confluence values. Relative growth was calculated for all timepoints for all growth conditions relative to the confluence value observed for the control at 120 hours. Graphing and statistical analyses were performed using Graphpad Prism (GraphPad Software).

[6] = system: T47D ESR1 Y537S cells; assay: Live-cell imaging growth studies and EC50 for growth inhibition, T47D ESR1 Y537S; format: cell-based; details: Homo sapiens, read-out: Approximate Half-maximal Effective Concentration (EC50) for growth inhibition
Protocol: as §1

[7] = system: MCF7 cells; assay: Live-cell imaging growth studies and EC50 for growth inhibition, MCF7; format: cell-based; details: Homo sapiens, read-out: Approximate Half-maximal Effective Concentration (EC50) for growth inhibition
Protocol: as §1

[8] = system: ESR1 (Y537S) PDX; assay: ESR1 (Y537S) PDX model tumor growth inhibition; format: in vivo; details: for tumor growth inhibition (TGI): ESR1 (Y537S) PDX, 28 days
[9] = Compound (I-c) 30 mg/kg oral QD x 28

**Q.** For `O=C1CC[C@H](N2Cc3cc(N4CCN(CC5CCN(c6ccc([C@@H]7c8ccc(O)cc8CC[C@@H]7c7ccccc7)cc6)CC5)CC4)ccc3C2=O)C(=O)N1` [Compound (I-c), (3S)-3-[5-[4-[[1-[4-[(1R,2S)-6-hydroxy-2-phenyl-tetralin-1-yl]phenyl]-4-piperidyl]methyl]piperazin-1-yl]-1-oxo-isoindolin-2-yl]piperidine-2,6-dione], which “degradation of rat uterine ER” value [1] is on record?
**A.** degrades

**Q.** And the “agonist activity (uterine weight)” value ([1]; FIG. 17: 30 mg/kg once a day oral)?
**A.** no agonist activity

**Q.** What about the “Day 28 Tumor volume (mean ± SD)” value ([2]; 3 mg/kg oral QD x 28) of the same compound?
**A.** 286 ± 206 mm^3

**Q.** What about the “TGI (% vehicle)” value ([2]; 3 mg/kg oral QD x 28) of the same compound?
**A.** 85 % vehicle

**Q.** And the “tumor growth inhibition (TGI)” value ([2]; 3 mg/kg oral once daily)?
**A.** 85%

**Q.** What about the “Day 28 Tumor volume (mean ± SD)” value ([2]; 10 mg/kg oral QD x 28) of the same compound?
**A.** 226 ± 118 mm^3

**Q.** And the “TGI (% vehicle)” value ([2]; 10 mg/kg oral QD x 28)?
**A.** 98 % vehicle

**Q.** And the “tumor growth inhibition (TGI)” value ([2]; 10 mg/kg oral once daily)?
**A.** 98% and 94%

**Q.** And the “Day 28 Tumor volume (mean ± SD)” value ([2]; 30 mg/kg oral QD x 28)?
**A.** 115 ± 79 mm^3

**Q.** What about the “TGI (% vehicle)” value ([2]; 30 mg/kg oral QD x 28) of the same compound?
**A.** 124 % vehicle

**Q.** And the “tumor growth inhibition (TGI)” value ([2]; 30 mg/kg oral once daily)?
**A.** 124%

**Q.** And the “Day 28 Tumor volume (mean ± SD)” value [3, 9]?
**A.** 170 ± 62 mm^3

**Q.** And the “TGI (% vehicle)” value [3, 9]?
**A.** 105 % vehicle

**Q.** And the “tumor growth inhibition (TGI)” value ([3]; single agent 30 mg/kg oral QD x 28)?
**A.** 105%

**Q.** What about the “reduction of tumor ERα levels” value ([4]; 10 mg/kg oral once daily) of the same compound?
**A.** 79%

**Q.** And the “reduction of tumor ERα levels” value ([4]; 30 mg/kg oral once daily)?
**A.** 88%

**Q.** And the “mutant ER protein levels” value ([4]; ESR1 Y537S PDX, 10 mg/kg)?
**A.** significantly reduced

**Q.** What about the pEC50 [5] of the same compound?
**A.** 8.00

**Q.** And the pEC50 [6]?
**A.** 7.30

**Q.** And the pEC50 [7]?
**A.** 8.00

**Q.** And the “tumor growth inhibition (TGI)” value ([8]; 10 mg/kg oral once daily)?
**A.** 99%

**Q.** What about the “tumor growth inhibition (TGI)” value ([8]; 30 mg/kg oral once daily) of the same compound?
**A.** 106%

**Q.** What about the tumor growth ([8]; ESR1 Y537S hormone-independent PDX, 10 mg/kg) of the same compound?
**A.** completely inhibited growth
